Assay results published in patent US20240384268A1, “Oligonucleotides” (Hudson Institute of Medical Research, priority 2021, published 2024).
In the oligonucleotide strings, read from the 5' end, every base follows the letter of its sugar. An asterisk marks phosphorothioate; unmarked linkages are phosphodiester. Other units and linkages are bracketed, terminal groups are in braces. A string of capitals states the bases alone. d = 2'-deoxy (DNA); m = 2'-O-methyl

Molecular target: cGAS (Homo sapiens, UniProt Q8N884)
Sequence (Q8N884 whole entry): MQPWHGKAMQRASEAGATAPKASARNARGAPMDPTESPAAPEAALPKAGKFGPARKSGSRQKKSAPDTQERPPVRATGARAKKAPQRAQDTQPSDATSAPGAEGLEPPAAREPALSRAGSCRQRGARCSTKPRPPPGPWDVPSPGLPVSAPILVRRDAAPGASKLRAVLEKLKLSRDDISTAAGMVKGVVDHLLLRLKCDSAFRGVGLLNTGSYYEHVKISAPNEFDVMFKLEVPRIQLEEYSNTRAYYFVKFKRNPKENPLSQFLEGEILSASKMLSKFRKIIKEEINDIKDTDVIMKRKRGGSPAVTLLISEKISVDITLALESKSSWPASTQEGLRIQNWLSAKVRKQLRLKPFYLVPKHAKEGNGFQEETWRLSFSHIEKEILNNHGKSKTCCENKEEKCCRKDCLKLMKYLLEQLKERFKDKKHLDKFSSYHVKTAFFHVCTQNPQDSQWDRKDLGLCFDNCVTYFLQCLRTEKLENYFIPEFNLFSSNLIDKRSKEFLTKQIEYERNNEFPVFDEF
Assay: ISD70-driven IP-10 (and IFN-β) production in THP-1 cells, ELISA
Format: cell-based
Design: endogenous in cells; host or cells: THP-1 (undifferentiated)
Settings: for cGAS-100 nM: averaged IP-10 levels relative to ISD70: THP-1, 100 nM ASO overnight, then ISD70 2.5 μg/ml 7-8 h, percentage of ISD70 only; for cGAS 100 nM: MOE-modified ASO at 100 nM, averaged IP-10 levels relative to ISD70 condition

Substance | cGAS-100 nM: averaged IP-10 levels relative to ISD70 | cGAS 100 nM
mG*mG*mG*mU*mC*T*C*C*T*C*C*A*C*A*C*mC*mC*mU*mU*mC (GGGUCTCCTCCACACCCUUC; antisense; sugars from the 5' end m5 d10 m5, all phosphorothioate, methylation of C not given here) [[LINC-PINT]128] | 37.83% | –
mG*mG*mU*mG*mG*C*C*A*C*A*G*G*C*A*A*mC*mG*mU*mC*mA (GGUGGCCACAGGCAACGUCA; antisense; sugars from the 5' end m5 d10 m5, all phosphorothioate, methylation of C not given here) [[CDKN2B-AS1]2196] | 48.58% | –
GGGTATCGAAAGAGTCTGGA (antisense; 2'-MOE modified, pattern not given here) [EGFR-3908 MOE] | – | 0.427
mC*mA*mC*mU*mG*T*A*T*T*T*T*A*T*T*A*mC*mA*mG*mA*mA (mC*mA*mC*mU*mG*dT*dA*dT*dT*dT*dT*dA*dT*dT*dA*mC*mA*mG*mA*mA; antisense) [[LINC-PINT]2990] | 69.47% | –
mA*mA*mA*mG*mA*T*T*A*T*C*T*T*C*T*T*mU*mU*mA*mA*mU (mA*mA*mA*mG*mA*dT*dT*dA*dT*dC*dT*dT*dC*dT*dT*mU*mU*mA*mA*mU) [[CDKN2B-AS1]2132] | 74.59% | –
mU*mG*mG*mC*mG*T*A*G*T*T*T*C*T*C*T*mU*mC*mC*mU*mC (mU*mG*mG*mC*mG*dT*dA*dG*dT*dT*dT*dC*dT*dC*dT*mU*mC*mC*mU*mC; antisense) [[LINC-PINT]937.1] | 70.97% | –
mU*mC*mU*mC*mU*C*T*G*G*T*C*C*C*A*T*mC*mC*mC*mU*mU (mU*mC*mU*mC*mU*dC*dT*dG*dG*dT*dC*dC*dC*dA*dT*mC*mC*mC*mU*mU; antisense) [[LINC-PINT]110] | 92.39% | –
mU*mC*mU*mC*mC*A*T*G*T*C*C*C*A*G*G*mC*mC*mU*mC*mC (mU*mC*mU*mC*mC*dA*dT*dG*dT*dC*dC*dC*dA*dG*dG*mC*mC*mU*mC*mC; antisense) [[CDKN2B-AS1]2230] | 94.78% | –
mC*mC*mU*mU*mC*T*G*C*T*G*C*C*A*A*G*mC*mC*mC*mC*mA (mC*mC*mU*mU*mC*dT*dG*dC*dT*dG*dC*dC*dA*dA*dG*mC*mC*mC*mC*mA; antisense) [[LINC-PINT]94] | 104.33% | –
mG*mU*mC*mC*mC*A*G*G*C*C*T*C*C*A*G*mU*mG*mU*mC*mU (mG*mU*mC*mC*mC*dA*dG*dG*dC*dC*dT*dC*dC*dA*dG*mU*mG*mU*mC*mU; antisense) [[CDKN2B-AS1]2223] | 74.22% | –
mA*mG*mA*mA*mA*G*A*A*G*C*A*A*A*G*A*mU*mU*mC*mA*mA (AGAAAGAAGCAAAGAUUCAA; sugars from the 5' end m5 d10 m5, all phosphorothioate, methylation of C not given here) [[CDKN2B-AS1]1519] | 49.09% | –
mC*mA*mG*mG*mC*C*T*C*C*A*G*T*G*T*C*mU*mU*mC*mU*mC (mC*mA*mG*mG*mC*dC*dT*dC*dC*dA*dG*dT*dG*dT*dC*mU*mU*mC*mU*mC; antisense) [[CDKN2B-AS1]2219] | 99.38% | –
AGTCGTAGTTGCTTCCTAAC (antisense; 2'-MOE modified, pattern not given here) [MB21D1-1181 MOE] | – | 0.261
CGGCATCCACCACGTCGTCC (antisense; 2'-MOE modified, pattern not given here) [EGFR-3267 MOE] | – | 0.378
CGGAGGTCTTGGCTTCGTGG (antisense; 2'-MOE modified, pattern not given here) [MB21D1-525 MOE] | – | 0.111
mC*mC*mU*mA*mG*A*A*A*G*A*A*G*C*A*A*mA*mG*mA*mU*mU (mC*mC*mU*mA*mG*dA*dA*dA*dG*dA*dA*dG*dC*dA*dA*mA*mG*mA*mU*mU) [[CDKN2B-AS1]1522] | 60.90% | –
